US20260200920A1, “SUBSTITUTED AMINOPYRIDINE COMPOUNDS FOR USE AS AKT1 INHIBITORS” (Atavistik Bio, Inc., priority 2023, published 2026)

How the values were obtained:
[1] = biological target: T1, human recombinant kinase full-length AKT1 E17K (Homo sapiens, UniProt P31749, E17K); assay: AKT1 E17K kinase assay (TR-FRET, Lance); assay type: biochemical; settings: 0.6 nM AKT1 E17K, 50 nM Ulight-CREBtide, either 50 μM ATP or 2 mM ATP, 60 min at RT
T1 construct: Purified human recombinant kinase full-length AKT1 E17K was expressed in insect cells; made in house; host or cells: insect cells
Protocol: AKT1 E17K kinase assay: Inhibitory effects of compounds on AKT1 E17K were undertaken in a 10-pt dose response kinase activity assay measuring phospho-peptide product formation based on TR-FRET signal as described in the following paragraph.
(§1) Purified human recombinant kinase full-length AKT1 E17K was expressed in insect cells and activated in vitro by PDPK1. Ulight™-CREBtide (PerkinElmer, catalog number TRF0107) was used as the peptide substrate. The reaction buffer consisted of 50 mM HEPES pH 7.5, 10 mM MgCl2, 0.01% Triton X-100, 0.01% BSA, 2 mM DTT, 0.6 nM AKT1 E17K, 50 nM Ulight™-CREBtide and either 50 μM ATP or 2 mM ATP. The compound solution was prepared as 10 mM DMSO stock. For the assay, a 1.3 serial dilution 10-pt dose response of test compounds, in duplicate, for each concentration were dispensed into a 384-well plate (Corning, catalog number 4513). Final DMSO concentration in the assay was 1%. The enzyme mixture (5 μL, 1.2 nM) were added and the mixture was incubated for 15 min at RT prior to the start of the kinase reaction by the addition of 5 μL substrate mixture (100 nM Ulight™-CREBtide). The reaction was stopped after 60 min of incubation at RT by the addition of 10 μL of Detection Mix (PerkinElmer, #CR97-100) consisting of Europium-anti-phospho-CREB (Ser133) (Perkin Elmer, catalog number TRF0200). Incubation with the detection mix for a further 60 min allowed binding of antibody to the phospho-Ulight™ CREBtide. The fluorescence emissions at 620 nm and 665 nm after excitation at 350 nm was measured using Envision reader. The ratio of the emissions at 665 nm and at 620 nm provided the measure for the amount of phosphorylated CREBtide product of AKT1 E17K kinase activity. To determine the IC50 values, the data was normalized (enzyme reaction without inhibitor=0% inhibition, all other assay components but no enzyme=100% inhibition) and IC50 values were calculated by a 4-parameter fit using an in-house developed protocol.
Table 9 assigns each compound a code for potency in the AKT1 E 17K kinase assay: A, B, or C. According to the code, A represents an IC50 value <500 nM; B represents an IC50 value from ≥500 nM to <2000 nM; and C represents an IC50 value ≥2000 nM.

[2] = biological target: T2, human recombinant kinase full-length wildtype AKT1 (Homo sapiens, UniProt P31749); assay: AKT1 kinase assay (wildtype, TR-FRET, Lance); assay type: biochemical; settings: 0.6 nM wildtype AKT1, 50 nM Ulight-CREBtide, either 50 μM ATP or 2 mM ATP, 60 min at RT
T2 construct: Purified human recombinant kinase full-length wildtype AKT1 was expressed in insect cells; made in house; host or cells: insect cells
Protocol: AKT1 kinase assay: Inhibitory effects of compounds on wildtype AKT1 were undertaken in a 10-pt dose response kinase activity assay measuring phospho-peptide product formation based on TR-FRET signal as described in the following paragraph.
as §1, with “full-length wildtype” for “full-length”, “AKT1” for “AKT1 E17K”, “AKT1,50” for “AKT1 E17K, 50”, “1:3” for “1.3”
The symbol +++ represents an IC50 value <20 μM; the symbol ++ represents an IC50 value from ≥20 μM to 80 μM.

T2 sequence (P31749 whole entry): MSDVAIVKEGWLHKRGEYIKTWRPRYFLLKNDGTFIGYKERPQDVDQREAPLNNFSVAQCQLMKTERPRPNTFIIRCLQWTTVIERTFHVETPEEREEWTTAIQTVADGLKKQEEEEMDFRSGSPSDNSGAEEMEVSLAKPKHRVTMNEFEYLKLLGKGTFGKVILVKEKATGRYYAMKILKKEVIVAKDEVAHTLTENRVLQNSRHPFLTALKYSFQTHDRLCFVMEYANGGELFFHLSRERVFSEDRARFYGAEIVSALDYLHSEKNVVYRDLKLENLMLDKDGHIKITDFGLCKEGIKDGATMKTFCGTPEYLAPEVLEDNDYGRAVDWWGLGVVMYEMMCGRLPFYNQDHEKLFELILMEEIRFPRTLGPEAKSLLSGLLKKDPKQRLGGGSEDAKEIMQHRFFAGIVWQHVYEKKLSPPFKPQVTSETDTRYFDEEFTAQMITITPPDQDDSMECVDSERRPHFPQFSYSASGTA
T1 sequence (P31749 whole entry E17K): as the sequence (P31749 whole entry) above, with E17K counted along it

| SMILES | IC50 [1] [nM] | IC50 [2] [nM] |
| --- | --- | --- |
| Nc1ncccc1-c1nc2ccc(-c3ccccc3)nc2n1-c1ccc(N[C@H]2CC[C@H](C(=O)O)CC2)nc1 (single isomer, unassigned) [Compound I-14, (1r,4r)-4-((5-(2-(2-aminopyridin-3-yl)-5-phenyl-3H-imidazo[4,5-b]pyridin-3-yl)pyridin-2-yl)amino)cyclohexane-1-carboxylic acid] | ≥ 2000 | < 20000 |
| Nc1ncccc1-c1nc2ccc(-c3ccccc3)nc2n1-c1ccc(N[C@H]2CC[C@@H](C(=O)O)CC2)nc1 (single isomer, unassigned) [Compound I-15, (1s,4s)-4-((5-(2-(2-aminopyridin-3-yl)-5-phenyl-3H-imidazo[4,5-b]pyridin-3-yl)pyridin-2-yl)amino)cyclohexane-1-carboxylic acid] | ≥ 2000 | < 20000 |
| Nc1ncccc1-c1nc2ccc(-c3ccccc3)nc2n1-c1ccc(CN(CC(F)(F)F)[C@H]2CC[C@H](C(=O)O)CC2)cc1 (single isomer, unassigned) [Compound I-188, (1r,4r)-4-((4-(2-(2-aminopyridin-3-yl)-5-phenyl-3H-imidazo[4,5-b]pyridin-3-yl)benzyl)(2,2,2-trifluoroethyl)amino)cyclohexane-1-carboxylic acid] | ≥ 2000 | < 20000 |
| Nc1ncccc1-c1nc2ccc(-c3ccccc3)nc2n1-c1ccc(CN(CC(F)(F)F)[C@H]2CC[C@@H](C(=O)O)CC2)cc1 (single isomer, unassigned) [Compound I-189, (1s,4s)-4-((4-(2-(2-aminopyridin-3-yl)-5-phenyl-3H-imidazo[4,5-b]pyridin-3-yl)benzyl)(2,2,2-trifluoroethyl)amino)cyclohexane-1-carboxylic acid] | ≥ 2000 | < 20000 |
| Nc1ncccc1-c1nc2ccc(-c3ccccc3F)nc2n1-c1ccc([C@H]2CCN(C[C@H]3CC[C@@H](C(=O)O)CC3)C2)cc1 (single isomer, unassigned) [Compound I-228] | 500 to 2000 | < 20000 |
| Nc1ncccc1-c1nc2ccc(-c3ccccc3F)nc2n1-c1ccc([C@@H]2CCN(C[C@H]3CC[C@@H](C(=O)O)CC3)C2)cc1 (single isomer, unassigned) [Compound I-229] | 500 to 2000 | < 20000 |
| Nc1ncccc1-c1nc2ccc(-c3ccccc3F)nc2n1-c1ccc([C@H]2CCN(C[C@H]3CC[C@H](C(=O)O)CC3)C2)cc1 (single isomer, unassigned) [Compound I-230] | 500 to 2000 | < 20000 |
| Nc1ncccc1-c1nc2ccc(-c3ccccc3F)nc2n1-c1ccc([C@@H]2CCN(C[C@H]3CC[C@H](C(=O)O)CC3)C2)cc1 (single isomer, unassigned) [Compound I-231] | < 500 | < 20000 |
| Nc1ncccc1-c1nc2ccc(-c3ccccc3)nc2n1-c1ccc([C@H]2CCN(C[C@H]3CC[C@H](C(=O)O)CC3)C2)cc1 (single isomer, unassigned) [Compound I-232] | 500 to 2000 | < 20000 |
| Nc1ncccc1-c1nc2ccc(-c3ccccc3)nc2n1-c1ccc([C@@H]2CCN(C[C@H]3CC[C@H](C(=O)O)CC3)C2)cc1 (single isomer, unassigned) [Compound I-233] | < 500 | < 20000 |
| CC1(C)C[C@H](C(=O)O)CC[C@@H]1CN1CC(c2ccc(-n3c(-c4cccnc4N)nc4ccc(-c5ccccc5)nc43)cc2)C1 (stereo in doubt) [Compound I-144] | < 500 | < 20000 |
| CC1(C)C[C@@H](C(=O)O)CC[C@@H]1CN1CC(c2ccc(-n3c(-c4cccnc4N)nc4ccc(-c5ccccc5)nc43)cc2)C1 (stereo in doubt) [Compound I-145] | 500 to 2000 | < 20000 |
| CN(Cc1ccc(-n2c(-c3cccnc3N)nc3ccc(-c4ccccc4)nc32)cc1)[C@@H]1CC[C@@H](C(=O)O)C1 (stereo in doubt) [Compound I-171] | < 500 | < 20000 |
| CC(C)(C(=O)O)[C@@H]1CCN(Cc2ccc(-n3c(-c4cccnc4N)nc4ccc(-c5ccccc5)nc43)cc2)C1 (stereo in doubt) [Compound I-174] | 500 to 2000 | < 20000 |
| CC(C)(C(=O)O)[C@H]1CCN(Cc2ccc(-n3c(-c4cccnc4N)nc4ccc(-c5ccccc5)nc43)cc2)C1 (stereo in doubt) [Compound I-175] | 500 to 2000 | < 20000 |
| Nc1ncccc1-c1nc2ccc(-c3ccccc3)nc2n1-c1ccc(C2CCN(C[C@H]3CCC[C@@H](C(=O)O)C3)CC2)cc1 (stereo in doubt) [Compound I-191] | 500 to 2000 | < 20000 |
| Nc1ncccc1-c1nc2ccc(-c3ccccc3)nc2n1-c1ccc(C2CCN(C[C@@H]3CCC[C@H](C(=O)O)C3)CC2)cc1 (stereo in doubt) [Compound I-192] | 500 to 2000 | < 20000 |
| Nc1ncccc1-c1nc2ccc(-c3ccccc3)nc2n1-c1ccc(NC(=O)C2CCC(C(=O)O)C2)cc1 (centres unmarked) [Compound I-1, 3-((4-(2-(2-aminopyridin-3-yl)-5-phenyl-3H-imidazo[4,5-b]pyridin-3-yl)phenyl)carbamoyl)cyclopentane-1-carboxylic acid] | < 500 | < 20000 |
| Nc1ncccc1-c1nc2ccc(-c3ccccc3)nc2n1-c1ccc(NC(=O)[C@H]2CC[C@H](C(=O)O)CC2)cc1 [Compound I-2] | < 500 | < 20000 |
| Nc1ncccc1-c1nc2ccc(-c3ccccc3)nc2n1-c1ccc(NC(=O)[C@H]2CC[C@@H](C(=O)O)CC2)cc1 [Compound I-3, cis-4-[[4-[2-(2-amino-3-pyridyl)-5-phenyl-imidazo[4,5-b]pyridin-3-yl]phenyl]carbamoyl]cyclohexanecarboxylic acid] | < 500 | < 20000 |
| Nc1ncccc1-c1nc2ccc(-c3ccccc3)nc2n1-c1ccc(NC(=O)C2CCCC(C(=O)O)C2)cc1 (centres unmarked) [Compound I-4, 3-[[4-[2-(2-amino-3-pyridyl)-5-phenyl-imidazo[4,5-b]pyridin-3-yl]phenyl]carbamoyl]cyclohexanecarboxylic acid] | < 500 | < 20000 |
| Nc1ncccc1-c1nc2ccc(-c3ccccc3)nc2n1-c1ccc(NC(=O)C2CCC(C(=O)O)CC2)cc1F (centres unmarked) [Compound I-5, 4-((4-(2-(2-aminopyridin-3-yl)-5-phenyl-3H-imidazo[4,5-b]pyridin-3-yl)-3-fluorophenyl)carbamoyl)cyclohexane-1-carboxylic acid] | 500 to 2000 | < 20000 |
